# Assays:
# [1] = target: T1, Tim9-Tim10 complex (Saccharomyces cerevisiae, UniProt O74700+P87108); assay: Tim9-Tim10 complex stability by blue native gel; assay type: biochemical, yeast; conditions: 25 and 50 μM; BN gel
# T1 construct: endogenous in cells; host or cells: isolated yeast mitochondria
# Description: Respiration measurements were performed with an oxygen electrode using yeast mitochondria (M) from the tim10 tim9S suppressor strain in the presence of (A) 1% DMSO (vehicle control for drug) and (B) MitoBloCK-1. Respiration was initiated with NADH addition. 25 μM MitoBloCK-1 or 1% DMSO was added once steady-state respiration had been established. As a control, CCCP was added to uncouple the electron transport chain. (C) Respiration for series with DMSO or MitoBloCK-1 addition was quantitated (n=3). Bars represent mean rates with standard deviations as error bars. (D) Membrane potential (Δψ) of mitochondria measurements of purified mitochondria were performed with the fluorescent dye rhodamine 123 using a fluorimeter. Coupled mitochondria (M) sequestered and quenched the dye fluorescence; 1% DMSO was added to determine its effect on the […]. Collapse of the Δψ initiated by CCCP was included as a control. […] (H) As in 7B, MitoBloCK-1 (25 and 50 μM) was incubated with mitochondria and assembly of the Tim9-Tim10 complex was monitored by BN gels and immunoblotting with antibodies against Tim 10.
# Steady-state levels of the small Tim complexes were analyzed from mitochondria isolates from TIA110,titn10-1, and titn10-1 titn9S strains following established methods (Murphy M P, et al., (2001), Mol Cell Biol 21:6132-6138). […]
# [2] = test system: Δpdr5Δsnq2 strain overexpressing Erv1; assay: Yeast growth inhibition (MIC50), Δpdr5Δsnq2 strain overexpressing Erv1; assay type: cell-based; conditions: Saccharomyces cerevisiae; Δpdr5Δsnq2 overexpressing Erv1 from high copy plasmid
# Description: For MIC50 analysis in the yeast strains, serial dilution of MitoBloCK-6 (0.5 μl) was pinned into assay plate wells containing 50 μl of yeast (Table 2) in rich ethanol-glycerol media (starting OD600=0.0002). Plates were then incubated at 25° C. in a humidified chamber for 40 hours. Each plate was shaken in a Beckman orbital shaker to resuspend settled cells, and the OD600 in each well was read by a Wallac Victor plate reader (Perkin Elmer).
# [3] = target: T2, Erv1 (Saccharomyces cerevisiae, UniProt P27882); assay: Reconstitution of substrate oxidation with Mia40 and Erv1; assay type: biochemical, yeast; conditions: after three hours; DMSO control approximately 80%
# T2 construct: made in house
# T2 sequence (P27882 1-189): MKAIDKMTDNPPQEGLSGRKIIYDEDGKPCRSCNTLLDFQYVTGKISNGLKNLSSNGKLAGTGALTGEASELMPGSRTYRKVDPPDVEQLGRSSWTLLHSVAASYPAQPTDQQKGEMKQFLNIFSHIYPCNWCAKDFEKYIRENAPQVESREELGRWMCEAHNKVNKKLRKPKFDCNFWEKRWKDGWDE
# Description: (A) Mitochondria from a strain expressing C-terminal histidine-tagged Erv1 were incubated with 50 μM MitoBloCK-6 or 1% DMSO for 30 min at 25° C. followed by solubilization in 1% digitonin buffer. As a control, 100 μg of extract was withdrawn (T), and 500 μg lysate was incubated with Ni+^2-agarose beads. The beads were washed and bound proteins (B) were eluted with SDS-PAGE sample buffer. To test effectiveness of binding, 100 μg of the unbound protein fraction (S) was also included. Proteins were analyzed by immunoblotting with polyclonal antibodies against Mia40, Erv1, and cyt c. […] Oxidized and reduced Tim13 were detected by non-reducing SDS-PAGE and immunoblotting with antibodies against Tim13.
# Reconstitution studies with reduced Tim13 were performed as described previously (Tienson et al., 2009). […] H2O2 levels in the reconstitution assays were measured using the Amplex Red Hydrogen Peroxide/Peroxidase Assay kit according to the manufacturer's protocol (Dabir et al., 2007) (Invitrogen). […] The Erv1 or ALR-catalyzed reduction of 02 to H2O2 was measured by a FlexStation plate reader (Molecular Devices) controlled via the SoftMax Pro software package (Molecular Devices) for data acquisition. […]
# T1 sequence (O74700 whole entry): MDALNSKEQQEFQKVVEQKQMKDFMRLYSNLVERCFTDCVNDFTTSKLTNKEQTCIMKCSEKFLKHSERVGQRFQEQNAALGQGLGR
# T1 sequence (P87108 whole entry): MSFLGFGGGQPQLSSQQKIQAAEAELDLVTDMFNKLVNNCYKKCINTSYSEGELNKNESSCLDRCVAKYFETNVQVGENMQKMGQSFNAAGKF
SMILES,steady-state stability of the Tim9-Tim10 complex [1],MIC50 [2] [µM],Tim13 oxidized [3] [%]
NC(=S)N/N=C/c1c(O)c(Br)cc2oc3c(c12)CCCC3 [MitoBloCK-1],did not alter steady-state stability of the Tim9-Tim10 complex,–,–
Oc1c(Cl)cc(Cl)cc1/C=N/c1ccc(Nc2ccccc2)cc1 [MitoBloCK-6],–,28.3,15
